Where a name gives a salt, the structure may show the parent alone.
Tests used:
[1] = target: T1, Human CCR5 receptor (Homo sapiens, UniProt P51681); experiment: Human CCR5 receptor-ligand binding assay (125I RANTES displacement); details: 0.1 nM 125I RANTES, CHO-Gα16-hCCR5 cells, RT 2 h
T1 construct: expressed in transfected cells
Source text: Human CCR5 receptor (Genebank ID: 29169292) was cloned into mammalian expression vector, pTarget (Promega). The construct was transfected into CHO-Gα16 cells by using Fugene Reagent (Roche). Clones were selected under antibiotic pressure (G418 and Hygromycin) and sorted 4 times with a fluorescence activates cell sorter and a monoclonal antibody specific for CCR5 receptor (BD Biosciences Pharmigen, Mab 2D7, Cat. No. 555993). The clone with highest expression (100,000 copies per cell) was chosen for the binding assays.
Adherent cells in […] tissue culture flask (˜90% confluent) were harvested using 1 mM EDTA in PBS (phosphate-buffered saline) without Ca^2+ and Mg^2+. Cells were washed twice with PBS containing no Ca^2+ and Mg^2+. CHO-Gα16-hCCR5 cells were then resuspended (1×10^6/ml) in ice cold binding buffer (50 mM HEPES, 1 mM CaCl2, 5 mM MgCl2, 0.5% BSA, 0.05% NaN3, pH 7.24), pH 7.4), supplemented with freshly made 0.5% BSA and 0.05% NaN3.
Eighty μl CHO-Gα16-hCCR5 (1×10^6/ml) cells were added to 96 well plates. All dilutions were made in binding buffer (50 mM HEPES, 1 mM CaCl2, 5 mM MgCl2, 0.5% BSA, 0.05% NaN3, pH 7.24).
The plates were incubated on a cell shaker at RT for 2 h with a final concentration of 0.1 nM ^125I RANTES or ^125I MIP-1α or ^125I MIP-1β. The compound dilutions were made in PBS, 1% BSA. Total reaction volume was 100 μl per well. The test compounds were added to the cells prior to the addition of radioligand.
After incubation, the cells were harvested onto GF/C filter plates using Packard cell harvester. Filters were pretreated with 0.3% PEI/0.2% BSA for 30 min. The filter plate was washed rapidly 5 times with 25 mM HEPES, 500 mM NaCl, 1 mM CaCl2 and 5 mM MgCl2 adjusted to pH 7.1. Plates were dried in oven (70° C.) for 20 min, added with 40 μl scintillation fluid and sealed with Packard TopSeal-A. Packard Top Count was used to measure of the radioactivity for 1 min per well.
Total binding was determined with control wells added with radioisotope and buffer and the non-specific binding was determined using an excess cold RANTES to some of the control wells. Specific binding was determined by subtracting the non-specific form total binding. Results are expressed as the percentage of specific ^125I RANTES binding. IC50 values were determined using varying concentrations of the test ligand in triplicates and the data was analyzed using GraphPad Prism (GraphPad, San Diego, Calif.).

T1 sequence (P51681 whole entry): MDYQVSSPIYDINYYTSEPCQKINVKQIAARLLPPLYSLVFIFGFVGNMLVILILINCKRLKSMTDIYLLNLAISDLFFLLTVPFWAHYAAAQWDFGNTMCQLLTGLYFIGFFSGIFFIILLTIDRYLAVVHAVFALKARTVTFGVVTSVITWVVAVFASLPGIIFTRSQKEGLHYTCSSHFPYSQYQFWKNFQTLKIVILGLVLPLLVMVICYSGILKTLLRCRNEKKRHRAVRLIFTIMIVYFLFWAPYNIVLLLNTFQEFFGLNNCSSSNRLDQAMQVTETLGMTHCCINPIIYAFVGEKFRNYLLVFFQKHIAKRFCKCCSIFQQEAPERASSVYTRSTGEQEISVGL

melting point [°C] | IC50 [1] [µM] | SMILES
58.1 to 65.2 | 0.0042 | CC(=O)N1CCC(C(=O)N(CCCN2C[C@@H]3CN(C(=O)c4c(C)cccc4C)C[C@@H]3C2)c2ccc(C)c(Cl)c2)CC1 [II-1, 1-Acetyl-piperidine-4-carboxylic acid (3-chloro-4-methyl-phenyl)-{3-[5-(2,6-dimethyl-benzoyl)-hexahydro-pyrrolo[3,4-c]pyrrol-2-yl]-propyl}]
91.8 to 96.9 | 0.0184 | CC(=O)N1CCC(C(=O)N(CCCN2CC3CN(C(=O)c4c(C)ccnc4C)CC3C2)c2ccc(C)c(Cl)c2)CC1 (stereo not drawn) [II-3, 1-Acetyl-piperidine-4-carboxylic acid (3-chloro-4-methyl-phenyl)-{3-[5-(2,4-dimethyl-pyridine-3-carbonyl)-hexahydro-pyrrolo[3,4-c]pyrrol-2-yl]-propyl}-amide]
60.9 to 62.4 | – | CC(=O)N1CCC(C(=O)N(CCC(C)N2CC3CN(C(=O)c4c(C)ccnc4C)CC3C2)c2ccc(C)c(Cl)c2)CC1 (stereo not drawn) [II-36, 1-Acetyl-piperidine-4-carboxylic acid (3-chloro-4-methyl-phenyl)-{3-[5-(2,4-dimethyl-pyridine-3-carbonyl)-hexahydro-pyrrolo[3,4-c]pyrrol-2-yl]-butyl}-amide]
60.5 to 62.5 | – | Cc1ccc(N(CCCN2C[C@@H]3CN(C(=O)c4c(C)ccnc4C)C[C@@H]3C2)C(=O)Nc2ccc(Cl)cc2)cc1 [II-203, 3-(4-Chloro-phenyl)-1-{3-[(3aS,6aR)-5-(2,4-dimethyl-pyridine-3-carbonyl)-hexahydro-pyrrolo[3,4-c]pyrrol-2-yl]-propyl}-1-p-tolyl-urea]
101.3 to 102.7 | 0.0015 | Cc1ccc(N(CCCN2CC3CN(C(=O)c4c(C)cccc4C)CC3C2)C(=O)C2CCS(=O)(=O)CC2)cc1Cl (stereo not drawn) [II-279]
– | 0.102 | Cc1ccc(N(CCCN2CC3CN(C(=O)c4c(C)ncnc4C)CC3C2)C(=O)C2CCN(C(=O)C(=O)O)CC2)cc1Cl (stereo not drawn) [II-303, [4-((3-Chloro-4-methyl-phenyl)-{3-[5-(4,6-dimethyl-pyrimidine-5-carbonyl)-hexahydro-pyrrolo[3,4-c]pyrrol-2-yl]-propyl}-carbamoyl)-piperidin-1-yl]-oxo-acetic acid, hydrochloride salt]
– | 0.0027 | CCOC(=O)c1[nH]c(C)c(S(=O)(=O)N2CC3CN(CCCN(C(=O)C4CCN(C(C)=O)CC4)c4ccc(C)c(Cl)c4)CC3C2)c1C (stereo not drawn) [II-355]

Second part, the compound before the results:

SMILES | melting point [°C] | IC50 [1] [µM]
Cc1cccc(C)c1C(=O)N1C[C@H]2CN(CCC(NC(=O)C3CCCC3)c3ccccc3)C[C@H]2C1 (stereo partly drawn) [Compound I-3, Cyclopentanecarboxylic acid {3-[5-(2,6-dimethyl-benzoyl)-hexahydro-pyrrolo[3,4-c]pyrrol-2-yl]-1-phenyl-propyl}-amide] | 60.9 to 63.9 | –
Cc1ncnc(C)c1C(=O)N1CC2CN(CCC(NC(=O)C3CCCC3)c3ccccc3)CC2C1 (stereo not drawn) [Compound I-29, Cyclopentanecarboxylic acid {3-[5-(4,6-dimethyl-pyrimidine-5-carbonyl)-hexahydro-pyrrolo[3,4-c]pyrrol-2-yl]-1-phenyl-propyl}-amide] | 48 to 49 | 0.016
Cc1ccnc(C)c1C(=O)N1CC2CN(CC[C@H](NC(=O)C3CCCC3)c3ccccc3)CC2C1 (stereo partly drawn) [Compound I-78] | 68.8 to 73.6 | 0.037
Cc1cccc(C)c1C(=O)N1CC2CN(C(CO)CC(NC(=O)C3CCCC3)c3ccccc3)CC2C1 (stereo not drawn) [Compound I-360, Cyclopentanecarboxylic acid {3-[5-(2,6-dimethyl-benzoyl)-hexahydro-pyrrolo[3,4-c]pyrrol-2-yl]-4-hydroxy-1-phenyl-butyl}-amide] | 78.9 to 84.9 | –
Cc1ncnc(C)c1C(=O)N1CC2CN(CCC(NC(=O)C3CCC(F)(F)CC3)c3ccccc3)CC2C1 (stereo not drawn) [Compound I-435, 4,4-Difluoro-cyclohexanecarboxylic acid {3-[5-(4,6-dimethyl-pyrimidine-5-carbonyl)-hexahydro-pyrrolo[3,4-c]pyrrol-2-yl]-1-phenyl-propyl}-amide] | 131.8 to 133.2 | –
Cc1ncnc(C)c1C(=O)N1CC2CN(C(C)CC(NC(=O)C3CCC(F)(F)CC3)c3ccccc3)CC2C1 (stereo not drawn) [Compound I-448, 4,4-Difluoro-cyclohexanecarboxylic acid {3-[5-(4,6-dimethyl-pyrimidine-5-carbonyl)-hexahydro-pyrrolo[3,4-c]pyrrol-2-yl]-1-phenyl-butyl}-amide] | 71.3 to 72.9 | –
Cc1ncnc(C)c1C(=O)N1CC2CN(C(C)C[C@H](NC(=O)C3CCC(F)(F)CC3)c3ccccc3)CC2C1 (stereo partly drawn) [Compound I-449] | 86.4 to 87 | 0.001
Cc1nc(OCC(=O)O)nc(C)c1C(=O)N1CC2CN(CC[C@H](NC(=O)C3CCCC3)c3ccccc3)CC2C1 (stereo partly drawn) [Compound I-466] | – | 0.011

Source: patent US7714018B2, “Heterocyclic antiviral compounds” (Roche Palo Alto LLC, priority 2004, dated 2010)
